Experiments:
human AT1 receptor = molecular target: T1, human AT1 receptor (Homo sapiens, UniProt P30556); experiment: AT1 receptor antagonistic activity: [125I]-angiotensin II binding assay on human AT1 receptor-expressing CHO-K1 cellular membrane fraction; settings: 22.5 pM [125I]-angiotensin II, 1 hr room temperature
T1 construct: expressed in transfected cells; membrane fraction
T1 sequence (P30556 1-359): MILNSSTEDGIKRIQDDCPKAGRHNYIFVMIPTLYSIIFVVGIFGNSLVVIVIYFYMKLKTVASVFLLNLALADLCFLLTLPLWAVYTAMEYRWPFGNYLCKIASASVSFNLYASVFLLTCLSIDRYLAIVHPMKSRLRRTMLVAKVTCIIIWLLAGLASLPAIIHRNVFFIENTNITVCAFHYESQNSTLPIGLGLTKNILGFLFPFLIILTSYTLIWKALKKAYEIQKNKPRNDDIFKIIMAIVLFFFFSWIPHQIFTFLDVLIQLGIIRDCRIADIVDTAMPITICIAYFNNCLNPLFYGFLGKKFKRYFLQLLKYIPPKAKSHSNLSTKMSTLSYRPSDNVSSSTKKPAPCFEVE
Description: CHO-K1 cell (RIKEN, Japan) capable of stable expression of human AT1 receptor was cultured, recovered, suspended in homogenize buffer (10 mM NaHCO3 (pH 7.4), 5 mM EDTA, 1× Complete EDTA free) [manufactured by Roche, Switzerland], and homogenized. The homogenate was centrifuged at low-speed (900×g, 10 min, 4° C.), and the supernatant was recovered and ultracentrifuged (90,000×g, 1 hr, 4° C.). The supernatant was discarded, and the pellets were resuspended in suspension buffer (50 mM Tris (pH 7.4), 1 mM EDTA, 1× Complete EDTA free).
(9 μg) in the presence of AT1 membrane and test compound in 100 μl, (total reaction volume) of reaction buffer (50 mM Tris (pH 7.4), 10 mM MgCl2 supplemented or not supplemented with 0.3 mg/mL fatty acid-free bovine serum albumin [manufactured by Wako Pure Chemical Industries, Ltd., Japan]). The reaction mixture was incubated in 96 well polypropylene plate for 1 hr at room temperature, and the reaction was quenched by rapid filtration (96 well cell harvester) through a GF/C filter treated with wash buffer (50 mM Tris (pH 7.4)). Subsequently, the filter was washed 5 times with 0.3 mL of ice-cooled wash buffer. […] Total binding was measured in the presence of 1% DMSO and nonspecific binding was measured in the presence of […] Candesartan.

human PPARγ = molecular target: T2, human PPARγ (Homo sapiens, UniProt P37231); experiment: PPARγ agonistic activity: luciferase reporter assay in PPARγ:RXRα:4ERPP/CHO-K1 cells; assay type: cell-based; settings: CHO-K1, test compound 10^−6 M; luciferase activity of control compound X (1 μM) = 100%, non-administration group = 0%
T2 construct: expressed in transfected cells
T2 sequence (P37231 1-477 isoform P37231-2): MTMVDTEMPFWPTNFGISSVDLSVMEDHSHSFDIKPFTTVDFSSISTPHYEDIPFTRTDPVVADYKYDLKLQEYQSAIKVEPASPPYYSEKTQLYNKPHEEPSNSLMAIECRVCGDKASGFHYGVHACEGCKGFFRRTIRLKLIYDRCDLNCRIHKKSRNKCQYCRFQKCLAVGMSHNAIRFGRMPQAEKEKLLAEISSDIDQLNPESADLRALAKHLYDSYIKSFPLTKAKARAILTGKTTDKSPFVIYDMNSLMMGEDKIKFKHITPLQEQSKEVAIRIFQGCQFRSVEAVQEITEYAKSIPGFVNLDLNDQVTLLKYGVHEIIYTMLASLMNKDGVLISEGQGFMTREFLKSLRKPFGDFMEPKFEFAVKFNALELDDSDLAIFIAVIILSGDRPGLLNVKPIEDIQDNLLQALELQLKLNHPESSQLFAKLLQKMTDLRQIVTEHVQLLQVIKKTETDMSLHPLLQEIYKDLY
T2 sequence (P19793 1-462 partner): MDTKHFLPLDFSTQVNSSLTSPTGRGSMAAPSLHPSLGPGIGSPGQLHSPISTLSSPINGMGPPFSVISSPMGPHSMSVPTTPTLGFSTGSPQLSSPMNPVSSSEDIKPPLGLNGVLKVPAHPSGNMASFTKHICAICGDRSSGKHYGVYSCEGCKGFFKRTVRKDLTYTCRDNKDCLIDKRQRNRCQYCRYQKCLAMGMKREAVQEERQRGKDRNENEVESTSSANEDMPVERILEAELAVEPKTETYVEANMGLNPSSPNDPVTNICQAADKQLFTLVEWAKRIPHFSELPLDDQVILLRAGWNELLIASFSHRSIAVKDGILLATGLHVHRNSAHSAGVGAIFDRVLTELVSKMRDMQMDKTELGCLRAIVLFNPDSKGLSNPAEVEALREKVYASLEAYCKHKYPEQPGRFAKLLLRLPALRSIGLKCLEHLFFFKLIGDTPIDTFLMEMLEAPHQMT
Excerpt: A CHO-K1 cell cultured in a 150 cm^2 cell culture flask [manufactured by Corning Costar Corporation, USA] comprising Ham's F12 medium [manufactured by INVITROGEN, USA] supplemented with 10% fetal bovine serum [manufactured by INVITROGEN, USA] was taken off by treating with 0.5 g/L trypsin-0.2 g/L EDTA (ethylenediamine tetraacetate) [manufactured by Life Technologies, Inc., USA], and then the cell was washed with PBS (Phosphate-buffered saline) [manufactured by INVITROGEN, USA], centrifuged (1000 rpm, 5 minutes) and suspended in PBS. Subsequently, DNA was introduced into the cell under the conditions shown below using GENE PULSER [manufactured by Bio-Rad Laboratories, USA].
Namely, to a cuvette having a 0.4 cm gap were added 8×10^6 cells and 10 μg of plasmid pVgRXR2-hPPARγ obtained in the above-mentioned (4) and 10 μg of reporter plasmid pGL3-4ERPP-TK neo obtained in the above-mentioned (3), which was subjected to electroporation at the voltage of 0.25 kV under the capacitance of […] Subsequently, the cell was transferred into a F12 medium comprising 10% fetal bovine serum and cultured for 24 hours, and then the cell was taken off again and centrifuged. Then, the pellet was suspended in Ham's F12 medium comprising 10% fetal bovine serum supplemented with 500 μg/ml of Geneticin [manufactured by INVITROGEN, USA] and 250 μg/ml of Zeocin [manufactured by INVITROGEN, USA]. The obtained suspension was diluted to the density of 10^4 cells/ml and inoculated in a 96-well plate [manufactured by Corning Costar Corporation, USA], which was cultured in a CO2 gas incubator at 37° C., whereby obtaining a Geneticin- and Zeocin-resistant transformant.
Subsequently, after the transformed cell line thus obtained was cultured in a 24-well plate [manufactured by Corning Costar Corporation, USA], a cell line in which expression of the luciferase was induced, i.e., PPARγ:RXRα:4ERPP/CHO-K1 cell was selected by the addition of 10 μM pioglitazone hydrochloride.
PPARγ:RXRα:4ERPP/CHO-K1 cells obtained in the above-mentioned (5) were cultured in F12 medium [manufactured by INVITROGEN, USA] containing 10% fetal bovine serum [manufactured by MOREGATE, Australia], seeded in a 96 well half-area white plate [manufactured by Corning Coster Corporation, USA] at 5×10^3 cells/well, and cultured in a CO2 incubator at 37° C. overnight.
Then, the medium was removed from the 96 well half-area white plate, hamF12 medium containing 0.1% fatty acid-free bovine serum albumin (BSA) (45 μl) and a test compound (5 μl) were added, and the mixture was cultured in the CO2 incubator at 37° C. for 1 day. After removing the medium, Picagene 7.5 [manufactured by Dai Nippon Inki, Japan] (20 μl) diluted 2-fold with HBSS (HANKS' BALANCED SALT SOLUTION) [manufactured by BIO […], USA] was added, and the mixture was stirred. Using 1420 ARVO Multilabel Counter [manufactured by PerkinElmer, USA], luciferase activity was measured. The percentage (%) was calculated from the luciferase activity of the test compound when the luciferase activity of the control compound (compound X: 5-[3-(4-{[2-(2-furyl)-5-methyl-1,3-oxazol-4-yl]methoxy}-3-methoxyphenyl)propyl]-1,3-oxazolidine-2,4-dione) (1 μM) was taken as 100% and the luciferase activity of the test compound non-administration group was taken as 0%.

CCCc1c(Cc2ccc(-c3ccccc3-c3noc(=O)[nH]3)cc2)c(=O)n(CC2CC2)c2ncnn12 [Example 21, 4-(cyclopropylmethyl)-6-{[2′-(5-oxo-4,5-dihydro-1,2,4-oxadiazol-3-yl)biphenyl-4-yl]methyl}-7-propyl[1,2,4]triazolo[1,5-a]pyrimidin-5(4H)-one]
IC50 (human AT1 receptor): 2 nM | activation at 1 µM (human PPARγ): 31%

CCCc1c(Cc2ccc(-c3ccccc3-c3noc(=O)[nH]3)cc2)c(=O)n(Cc2ccc(C(C)=O)cc2)c2ncnn12 [Example 28, 4-(4-acetylbenzyl)-6-{[2′-(5-oxo-4,5-dihydro-1,2,4-oxadiazol-3-yl)biphenyl-4-yl]methyl}-7-propyl[1,2,4]triazolo[1,5-a]pyrimidin-5(4H)-one]
IC50 (human AT1 receptor): 3 nM | activation at 1 µM (human PPARγ): 49%

CCCc1c(Cc2ccc(-c3ccccc3-c3noc(=O)[nH]3)cc2)c(=O)n(CCC)c2ncnn12 [Example 29, 6-{[2′-(5-oxo-4,5-dihydro-1,2,4-oxadiazol-3-yl)biphenyl-4-yl]methyl}-4,7-dipropyl[1,2,4]triazolo[1,5-a]pyrimidin-5(4H)-one]
IC50 (human AT1 receptor): 3 nM | activation at 1 µM (human PPARγ): 16%

CCCc1c(Cc2ccc(-c3ccccc3-c3noc(=O)[nH]3)cc2F)c(=O)n(Cc2ccc(OC)cc2OC)c2ncnn12 [Example 37, 4-(2,4-dimethoxybenzyl)-6-{[3-fluoro-2′-(5-oxo-4,5-dihydro-1,2,4-oxadiazol-3-yl)biphenyl-4-yl]methyl}-7-propyl[1,2,4]triazolo[1,5-a]pyrimidin-5(4H)-one]
IC50 (human AT1 receptor): 2.5 nM | activation at 1 µM (human PPARγ): 33%

CCCc1c(Cc2ccc(-c3ccccc3-c3noc(=O)[nH]3)cc2F)c(=O)n(-c2ccc(OC(C)C)cc2)c2ncnn12 [Example 43, 6-{[3-fluoro-2′-(5-oxo-4,5-dihydro-1,2,4-oxadiazol-3-yl)biphenyl-4-yl]methyl}-4-[4-(1-methylethoxy)phenyl]-7-propyl[1,2,4]triazolo[1,5-a]pyrimidin-5(4H)-one]
IC50 (human AT1 receptor): 2.1 nM | activation at 1 µM (human PPARγ): 34%

CCCc1c(Cc2ccc(-c3ccccc3-c3noc(=O)[nH]3)cc2)c(=O)n(C(C)CC)c2nc(C)nn12 (stereo not shown) [Example 68, 2-methyl-4-(1-methylpropyl)-6-{[2′-(5-oxo-4,5-dihydro-1,2,4-oxadiazol-3-yl)biphenyl-4-yl]methyl}-7-propyl[1,2,4]triazolo[1,5-a]pyrimidin-5(4H)-one]
IC50 (human AT1 receptor): 1.7 nM | activation at 1 µM (human PPARγ): 17%

CCCc1c(Cc2ccc(-c3ccccc3-c3noc(=O)[nH]3)cc2)c(=O)n(CC2(C)CC2)c2nc(C)nn12 [Example 69, 2-methyl-4-[(1-methylcyclopropyl)methyl]-6-{[2′-(5-oxo-4,5-dihydro-1,2,4-oxadiazol-3-yl)biphenyl-4-yl]methyl}-7-propyl[1,2,4]triazolo[1,5-a]pyrimidin-5(4H)-one]
IC50 (human AT1 receptor): 1.4 nM | activation at 1 µM (human PPARγ): 27%

CCCc1c(Cc2ccc(-c3ccccc3-c3noc(=O)[nH]3)cc2)c(=O)n(CC(C)(C)COC)c2nc(C)nn12 [Example 73, 4-(3-methoxy-2,2-dimethylpropyl)-2-methyl-6-{[2′-(5-oxo-4,5-dihydro-1,2,4-oxadiazol-3-yl)biphenyl-4-yl]methyl}-7-propyl[1,2,4]triazolo[1,5-a]pyrimidin-5(4H)-one]
IC50 (human AT1 receptor): 1.5 nM | activation at 1 µM (human PPARγ): 20%

CCCc1c(Cc2ccc(-c3ccccc3-c3noc(=O)[nH]3)cc2)c(=O)n(C2C=CCCC2)c2nc(C)nn12 (stereo not shown) [Example 74, 4-(cyclohex-2-en-1-yl)-2-methyl-6-{[2′-(5-oxo-4,5-dihydro-1,2,4-oxadiazol-3-yl)biphenyl-4-yl]methyl}-7-propyl[1,2,4]triazolo[1,5-a]pyrimidin-5(4H)-one]
IC50 (human AT1 receptor): 2.1 nM | activation at 1 µM (human PPARγ): 25%

CCCc1c(Cc2ccc(-c3ccccc3-c3noc(=O)[nH]3)cc2)c(=O)n(C2CCCCC2)c2nc(C)nn12 [Example 78, 4-cyclohexyl-2-methyl-6-{[2′-(5-oxo-4,5-dihydro-1,2,4-oxadiazol-3-yl)biphenyl-4-yl]methyl}-7-propyl[1,2,4]triazolo[1,5-a]pyrimidin-5(4H)-one]
IC50 (human AT1 receptor): 1.8 nM | activation at 1 µM (human PPARγ): 21%

CCCc1c(Cc2ccc(-c3ccccc3-c3noc(=O)[nH]3)cc2)c(=O)n(C2CCC2)c2nc(C)nn12 [Example 83, 4-cyclobutyl-2-methyl-6-{[2′-(5-oxo-4,5-dihydro-1,2,4-oxadiazol-3-yl)biphenyl-4-yl]methyl}-7-propyl[1,2,4]triazolo[1,5-a]pyrimidin-5(4H)-one]
IC50 (human AT1 receptor): 1.5 nM | activation at 1 µM (human PPARγ): 16%

— US8283353B2, “Fused ring compound and use thereof” (Takeda Pharmaceutical Company Limited, priority 2009, dated 2012)
